Laboratory results reported in ChEMBL document CHEMBL2074322, “Bidirectional transport of rhodamine 123 and Hoechst 33342, fluorescence probes of the binding sites on P-glycoprotein, across MDCK-MDR1 cell monolayers” (J Pharm Sci, 2004).

Legend:
Format in all cases: functional, cell-based
Conditions in all cases: dog
[1] = biological target: T1, ATP-dependent translocase ABCB1 (Homo sapiens, UniProt P08183); experiment: TP_TRANSPORTER: transepithelial transport of Rhodamine 123 in the presence of Hoechst 33342 at a concentration of 5uM in MDR1-expressing MDCK cells
[2] = biological target: T1, ATP-dependent translocase ABCB1; experiment: TP_TRANSPORTER: transepithelial transport in MDR1-expressing MDCK cells
[3] = biological target: T1, ATP-dependent translocase ABCB1; experiment: TP_TRANSPORTER: transepithelial transport of Hoechst 33342 in the presence of Daunorubicin (Daunomycin) at a concentration of 80uM in MDR1-expressing MDCK cells
[4] = biological target: T1, ATP-dependent translocase ABCB1; experiment: TP_TRANSPORTER: transepithelial transport of Rhodamine 123 in the presence of Daunorubicin (Daunomycin) at a concentration of 80uM in MDR1-expressing MDCK cells

T1 sequence (P08183 whole entry): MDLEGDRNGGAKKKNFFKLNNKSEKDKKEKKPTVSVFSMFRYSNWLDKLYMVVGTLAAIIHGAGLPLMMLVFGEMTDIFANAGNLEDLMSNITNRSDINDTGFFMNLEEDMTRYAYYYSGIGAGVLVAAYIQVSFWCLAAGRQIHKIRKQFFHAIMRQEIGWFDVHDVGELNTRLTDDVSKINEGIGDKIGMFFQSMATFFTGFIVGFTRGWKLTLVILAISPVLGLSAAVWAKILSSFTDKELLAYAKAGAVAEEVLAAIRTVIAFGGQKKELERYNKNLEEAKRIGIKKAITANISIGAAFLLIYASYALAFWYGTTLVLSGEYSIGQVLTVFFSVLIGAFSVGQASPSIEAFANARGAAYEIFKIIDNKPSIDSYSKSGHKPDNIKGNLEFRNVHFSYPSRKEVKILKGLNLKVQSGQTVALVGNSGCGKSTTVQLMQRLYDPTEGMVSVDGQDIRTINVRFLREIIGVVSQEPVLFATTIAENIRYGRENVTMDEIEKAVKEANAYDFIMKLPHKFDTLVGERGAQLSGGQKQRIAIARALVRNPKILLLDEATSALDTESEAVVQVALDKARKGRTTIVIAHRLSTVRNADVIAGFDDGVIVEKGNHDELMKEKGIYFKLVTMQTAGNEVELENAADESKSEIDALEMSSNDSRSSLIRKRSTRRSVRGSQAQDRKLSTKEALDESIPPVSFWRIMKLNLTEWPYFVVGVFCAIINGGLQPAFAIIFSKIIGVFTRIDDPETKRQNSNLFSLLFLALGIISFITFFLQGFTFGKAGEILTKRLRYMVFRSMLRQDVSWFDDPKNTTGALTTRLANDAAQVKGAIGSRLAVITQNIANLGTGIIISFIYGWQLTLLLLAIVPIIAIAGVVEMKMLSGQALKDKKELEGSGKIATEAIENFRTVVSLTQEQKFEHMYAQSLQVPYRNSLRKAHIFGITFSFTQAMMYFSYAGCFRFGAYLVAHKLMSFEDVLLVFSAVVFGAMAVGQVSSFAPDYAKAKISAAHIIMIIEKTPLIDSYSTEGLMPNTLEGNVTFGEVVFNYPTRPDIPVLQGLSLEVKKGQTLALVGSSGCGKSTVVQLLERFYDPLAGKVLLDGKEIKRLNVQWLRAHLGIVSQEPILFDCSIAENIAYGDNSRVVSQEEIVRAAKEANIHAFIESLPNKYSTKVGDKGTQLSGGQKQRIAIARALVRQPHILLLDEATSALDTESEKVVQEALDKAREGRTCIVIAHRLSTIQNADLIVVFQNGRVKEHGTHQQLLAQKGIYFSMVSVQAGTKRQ

| Activity [3] | Activity [4] | SMILES | Activity [1] | Activity [2] |
| --- | --- | --- | --- | --- |
|  |  | CCOc1ccc(-c2nc3cc(-c4nc5cc(N6CCN(C)CC6)ccc5[nH]4)ccc3[nH]2)cc1 | inhibitor [+] | substrate [+] |
| inhibitor [+] | inhibitor [+] | COc1cccc2c1C(=O)c1c(O)c3c(c(O)c1C2=O)C[C@@](O)(C(C)=O)C[C@@H]3O[C@H]1C[C@H](N)[C@H](O)[C@H](C)O1 [DAUNORUBICIN] |  |  |
|  |  | COC(=O)c1ccccc1-c1c2ccc(=N)cc-2oc2cc(N)ccc12.Cl [RHODAMINE123] |  | substrate [+] |
